What all share (assay type): in vivo, mice
Test [1] deals with PC3 tumors. Nature of the test: MRMI with MT218, PC3 xenografts. The conditions noted are these: 0.04 mmol Gd/kg. The source says: Xenograft models were established by subcutaneous flank injections in athymic nu/nu mice for the 4 prostate cancer cells and tested with MRMI using 0.04 mmol Gd/kg of MT218.
Test [2] has as its system BxPC3-GFP-Luc intrapancreatic tumors. Nature of the test: MRMI of BxPC3-GFP-Luc intrapancreatic tumors. As to the method: For flank xenograft models, 4×10^6 Capan-1 cells suspended in 100 μL of a 6 mg/mL Matrigel (Corning, Corning, NY) solution was injected subcutaneously into the flank of eight-week-old female nu/nu mice. The tumor bearing mice were imaged after tumor volumes exceeded 300 mm^3. For orthotopic intrapancreatic models, the pancreas of four-week-old female nu/nu mice were surgically exposed and 1×10^6 BxPC3-GFP-Luc or PANC-1-GFP-Luc cells suspended in 100 μL of an Matrigel solution (6 mg/mL) was injected into the pancreatic tissue. Prior to imaging, growth of tumor was verified by bioluminescence imaging with intraperitoneal injection of d-luciferin on IVIS Spectrum system (Perkin Elmer, Waltham, MA).
Mice bearing intrapancreatic tumors were anesthetized and a tail vein catheter was inserted. Image acquisition was performed on a MR Solutions 3T MRS 3000 scanner with a mouse radiofrequency coil. Axial images were obtained using a Fast Spin Echo (FSE) MRI sequence (305 ms TR, 11 ms TE, 90° F.A, 4 cm×4 cm FOV, 1 mm slice thickness, 10 slices, echo train length=4, echo spacing=11 ms, 4 averages, 256×256 matrix, […] cm/pixel resolution) with respiratory gating. Images were acquired before contrast and at different time points after contrast injection at a dose of 0.1 mmol/kg (100 μL). For competitive binding experiments, a 5:1 molar ratio of free ZD2 peptide to MT218 was injected in mice bearing intrapancreatic BxPC3 tumor xenografts (n=3) at a dose of 0.1 mmol MT218/kg (100 μL). Images obtained on the MR Solutions 3T scanner were normalized using the Surscalereader.exe (MR Solutions, Guildford, UK) program supplied.
Image files were exported and analyzed in Horus software. ROIs were drawn in the tumor, liver, kidney, and muscle. Muscle ROIs were taken from muscle, with other structures (liver, kidney, tumor) identified after comparison with published images and comparison with anatomical landmarks or bioluminescent imaging. Size of ROIs drawn for image analysis are summarized in Supplemental Table S1. The contrast-to-noise ratio of the tumor (CNR) was calculated using the following equation, where σ_noise is the standard deviation of intensities from an ROI drawn outside of the mouse body:
Image contrast was reported as fold enhancement of contrast to noise ratio of postcontrast images over precontrast images using Fold Enhancement=CNRpost/CNRpre. Statistical analysis of CNR was performed in Minitab Express (Minitab Inc, State College, PA). One-way ANOVA with Fisher Individual Tests for Differences of Means post-hoc testing was performed to determine statistical significance between greater than two means (p<0.05). Student's T test was used to determine statistical significance between two means (p<0.05).

In test [3] the test system is CAL27 tumors. Nature of the test: MRMI of OSCC flank xenografts, CAL27. The conditions noted are these: MT218 0.04 mmol/kg. As for the experimental part: Animal experiments were performed under an animal protocol approved by the Institutional Animal Care and Use Committee (IACUC) at Case Western Reserve University (CWRU, Cleveland, OH, USA). Female 4-week-old athymic nude mice purchased from the Jackson Laboratory (Bar Harbor, ME, USA) were housed in the Animal Core Facility at CWRU. Anesthetized mice were subcutaneously inoculated in the right flank with 4×10^6 GFP/luciferase-expressing OSCC cells (n=5 per cell line) in 100 μL of a 1:1 mixture of Matrigel HC (Corning) and DPBS. Tumor size was monitored with caliper measurements. After 4 weeks of growth, tumors were sufficiently large for MRI experiments.
MRI experiments were performed with a 3T MRS-3000 system (MR Solutions, Surrey, UK). Tumor-bearing mice were imaged before and at 10, 20, and 30 minutes post-injection of the targeted contrast agent, MT218 (Molecular Theranostics, LLC, Cleveland, OH, USA), at a dose of 0.04 mmol/kg using a T1-weighted fast spin-echo axial sequence with respiratory gating (TR=305 ms, TE=11 ms, FOV=40×40 mm, slice thickness=1 mm, number of slices=15, Nav=2, matrix=256×248). […]
Images were exported in DICOM format and analyzed using FIJI. Contrast-to-noise ratio (CNR) for each time point was calculated as the difference between the mean tumor intensity and the mean muscle intensity, divided by the standard deviation of noise.

The results in this text go back to patent publication US20240374763A1, “DIAGNOSIS AND MONITORING USING EXTRADOMAIN-B FIBRONECTIN TARGETED PROBES” (Case Western Reserve University, priority 2020, published 2024).

No end group written: not given here.

On to “ZD2-N3-Gd(HP-DO3A) (TVRTSAD; also: conjugated to Gd(HP-DO3A) by click reaction of alkynyl-ZD2 with N3-Gd(HP-DO3A), residue of attachment not given here, Gd complex) [MT218, EDB-FN-targeted MRI contrast agent; ZD2 peptide conjugated to the clinical macrocyclic agent Gd(HP-DO3A)]”, for which, in test [1], the “CNR of PC3 tumors relative to PC3-DR tumors” value worked out at 3.3 fold. The “CNR over the pre-contrast” value in test [1] (PC3 tumors, 20 min post-injection) was found to be 5 fold. In addition, in test [2] (0.1 mmol/kg, 10 min post-injection), the “tumor CNR increase” value amounted to 5.3 fold. Also, in test [2] (5:1 molar ratio of free ZD2 peptide to MT218, 0.1 mmol MT218/kg), the “CNR increase with co-injection of excess free ZD2 peptide” value is reported as “approximately 2.5 fold”. Moreover, the “CNR compared to the clinical agent Gd(HP-DO3A)” value in test [2] (BxPC3-GFP-Luc) was 212 % CNR of control. The “CNR increase with MT218 without the free peptide” value in test [2] (competitive binding experiment, 0.1 mmol/kg) is reported as “ca. 4.5 fold”. Moreover, in test [3], the “average maximum enhancement (CNR)” value is recorded as 1.80±0.17.
